Measured values as given in ChEMBL document CHEMBL3272313, “3-Hydroxy-17-aralkylmorphinans as potential opiate receptor-site-directed alkylating agents” (J Med Chem, 1977).
The source made the active and inactive calls. The rule behind the calls is not given here.

Tests used:
Mus musculus [1] = experiment: Analgesic activity in sc dosed Swiss-Webster mouse after 30 mins; type: functional; details: 0.5 h
Mus musculus [2] = experiment: Analgesic activity in sc dosed Swiss-Webster mouse time of peak effect; type: functional
Mus musculus [3] = experiment: Analgesic activity in sc dosed Swiss-Webster mouse after 6.5 hrs; type: functional, organism-based
Mus musculus [4] = experiment: Analgesic activity in Swiss-Webster mouse assessed as time required for sustainance of activity at 70 mg/kg, sc; type: functional; details: route subcutaneous

`O=C(CBr)Nc1ccccc1CCN1CC[C@]23CCCC[C@H]2[C@H]1Cc1ccc(O)cc13` was tested, and the ED50 (Mus musculus [1]) was 16 mg/kg, the Time (Mus musculus [2]) was 30 min and the Activity (Mus musculus [3]) was “Active”. The Time (Mus musculus [4]) was 6.5 h.
